The text below walks through data of US20230060588A1 (priority 2021, published 2023).

Data set [1] deals with A375 cells.
Data set [2] deals with A375 cells. The class given is cell-based.
For data set [3], the system named is SARS-CoV-2. The note with it: cited from earlier work.
Data set [4] has as its system SARS-CoV-2 S1 protein. The class given is cell-based.
Data set [5] relates to PANC1 cells. The class given is cell-based.
The test system of data set [6] is MCF7 cells. In kind it is cell-based.
Data set [7] has as its system ACE2. The class given is cell-based, human.
The test system of data set [8] is MDA-MB-231 cells. The class given is cell-based.
The subject of data set [9] is PANC1 cells. The class given is cell-based. The source holds these as a separate data set.
Data set [10] relates to A549 ACE2+ cells.
Data set [11] deals with Reporter mNeonGreen SARS-CoV-2 virus (2019-nCoV/USA_WA1/2020). The class given is cell-based.
For data set [12], the system named is LN18 cells. The class given is cell-based.
In data set [13] the test system is MCF7 cells. The class given is cell-based. The source holds these as a separate data set.
Data set [14] deals with A549 cells. The class given is cell-based, human.
For data set [15], the system named is SARS-CoV-2 S1 protein-ACE2. The class given is binding.
Data set [16] has as its system MCF7 cells.

Consider `CC(=O)OC1O[C@H](CO)[C@@H](OC(C)=O)[C@H](O)[C@@H]1O` (stereo partly drawn) [1,4-di-O-acetyl-D-mannopyranose], for which the cell viability result in data set [1] is on record as “did not have any influence on cell viability”. In [2], the ECL binding entry was “no effect”, the MAL2 binding entry is “no effect”, the PNA binding entry is listed as “significantly reduced” and the SNA binding result was “no effect”.

On to `CN(Cc1cnc2nc(N)nc(N)c2n1)c1ccc(C(=O)N[C@@H](CCC(=O)O)C(=O)O)cc1` [methotrexate], for which the SARS-CoV-2 replication entry in data set [3] is listed as “reduced”.

`O=C[C@@H](O)[C@@H](O)[C@H](O)[C@H](O)CO` [D-mannose]: in data set [4], the “ECL binding to S1 protein” value is reported as “significantly reduced”, the “MAL1 binding to S1 protein” value is on record as “moderately reduced”, the “MAL2 binding to S1 protein” value is listed as “moderately reduced” and the “PNA binding to S1 protein” value is given as “No PNA binding was observed”. In [4], the “RSL binding to S1 protein” value is recorded as “significantly reduced” and the “SNA binding to S1 protein” value is “no change”. In [5], the ECL binding entry is “generally reduced”, the MAL2 binding entry is on record as “increasing”, the PNA binding entry is given as “generally reduced” and the SNA binding entry is “increasing”. In data set [6], the ECL binding result is given as “generally reduced”, the MAL2 binding result is on record as “increasing”, the PNA binding result is “generally reduced” and the SNA binding entry is reported as “increasing”. Further, in data set [7], the ACE2 expression entry is on record as “did not significantly change”. In addition, in [8], the ECL binding result is recorded as “significantly reduced”, the MAL2 binding entry is “no effect on enhancing”, the PNA binding entry is on record as “significantly reduced” and the SNA binding result is “no effect on enhancing”. In addition, in data set [9], the “disialyl T antigen/T antigen ratio” value is recorded as “significantly increased” and the “sialyl T antigen/T antigen ratio” value is given as “significantly increased”. Further, in [10], the cytotoxicity result is given as “no observed cytotoxicity” and the total cell count entry is “negligible difference in cell count”. Also, in [11], the cytoprotection result is “significant cytoprotection” and the “reduction in viral replication” value was approximately 70%. For the same compound, in data set [12], the ECL binding entry is “significantly reduced”, the MAL2 binding entry is on record as “no effect on enhancing”, the PNA binding result is “significantly reduced” and the SNA binding entry is reported as “no effect on enhancing”. In data set [13], the “disialyl T antigen/T antigen ratio” value is “significantly enhanced” and the “sialylation of complex N-glycans” value is “sialic acids were added to multiple N-glycans”. In data set [14], the ECL binding entry is given as “significantly reduced”, the MAL2 binding entry was “slightly enhancing”, the PNA binding entry is on record as “minimal to no influence” and the SNA binding result is “minimal to no influence”. For the same compound, in data set [15], the “ACE2 binding of S1 protein” value is reported as “reduced ACE2 binding”.

For the compound `CC(=O)OC1O[C@H](CO)[C@@H](OC(C)=O)[C@H](OC(C)=O)[C@@H]1OC(C)=O` (stereo partly drawn) [1,2,3,4-tetra-O-Acetyl-D-mannopyranose], in data set [6], the ECL binding entry is “moderately reduced”, the MAL2 binding entry is listed as “no effect”, the PNA binding result was “significantly reduced” and the SNA binding entry is reported as “no effect”. Moreover, the cell toxicity entry in [16] was “induced cell toxicity at a higher concentration”. Besides, the “concentrations having no impact on cell viability” value in data set [16] (human) is listed as “less than 0.7 mM”.
